Source: ChEMBL document CHEMBL1154111, “Potent, orally bioavailable, liver-selective stearoyl-CoA desaturase (SCD) inhibitors” (Bioorg Med Chem Lett, 2009)

Experiments:
Acyl-CoA desaturase 1 = biological target: T1, Acyl-CoA desaturase 1 (Rattus norvegicus, UniProt P07308); test: Inhibition of stearoyl-CoA delta9 desaturase in rat microsome
T1 sequence (P07308 whole entry): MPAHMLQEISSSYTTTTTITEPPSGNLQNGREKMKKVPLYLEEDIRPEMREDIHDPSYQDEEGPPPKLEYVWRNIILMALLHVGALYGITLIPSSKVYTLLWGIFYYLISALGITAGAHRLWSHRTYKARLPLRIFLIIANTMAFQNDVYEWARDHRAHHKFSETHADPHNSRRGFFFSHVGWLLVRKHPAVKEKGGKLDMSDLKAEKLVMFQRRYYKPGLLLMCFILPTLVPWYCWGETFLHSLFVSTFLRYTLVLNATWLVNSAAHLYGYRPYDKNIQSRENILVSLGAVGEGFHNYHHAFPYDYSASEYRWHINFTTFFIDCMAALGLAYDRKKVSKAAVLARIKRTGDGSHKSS

[1] = Metabolic stability in human liver microsome after 30 mins; format: ADME; settings: liver microsomes, read-out: Stability
[2] = Metabolic stability in Sprague-Dawley rat liver microsome after 30 mins; format: ADME; settings: liver microsomes, read-out: Stability
Rattus norvegicus [3] = test: Dose normalized AUC in Sprague-Dawley rat at 1 mg/kg, po; format: ADME, organism-based; set-up: dose 1 mg/kg, route oral; settings: in vivo
[4] = Terminal volume of distribution in Sprague-Dawley rat at 1.5 mg/kg, po and 1 mg/kg, iv; format: ADME, organism-based; settings: in vivo, read-out: Vbeta
[5] = Cmax in Sprague-Dawley rat at 1.5 mg/kg, po; format: ADME, organism-based; set-up: dose 1.5 mg/kg, route oral; settings: in vivo
Stearoyl-CoA desaturase = biological target: T2, Stearoyl-CoA desaturase (Homo sapiens, UniProt O00767); test: Inhibition of stearoyl-CoA delta9 desaturase in human HepG2 cells; format: cell-based
T2 sequence (O00767 whole entry): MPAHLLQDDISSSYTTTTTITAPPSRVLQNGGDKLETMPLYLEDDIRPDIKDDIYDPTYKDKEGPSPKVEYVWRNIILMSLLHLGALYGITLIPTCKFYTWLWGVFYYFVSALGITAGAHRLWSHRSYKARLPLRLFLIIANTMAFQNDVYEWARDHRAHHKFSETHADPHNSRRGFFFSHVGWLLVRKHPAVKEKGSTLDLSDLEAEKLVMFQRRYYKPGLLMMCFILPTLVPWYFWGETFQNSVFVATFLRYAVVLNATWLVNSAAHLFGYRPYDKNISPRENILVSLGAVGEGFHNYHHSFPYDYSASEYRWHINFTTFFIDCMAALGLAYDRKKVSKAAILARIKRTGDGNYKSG

[6] = Oral bioavailability in Sprague-Dawley rat at 1.5 mg/kg; format: ADME, organism-based; settings: in vivo
[7] = Plasma clearance in Sprague-Dawley rat plasma at 1 mg/kg, iv; format: ADME, organism-based; set-up: dose 1 mg/kg, route intravenous
[8] = Elimination half life in Sprague-Dawley rat at 1 mg/kg, iv; format: ADME, organism-based; set-up: dose 1 mg/kg, route intravenous; settings: in vivo, read-out: beta t1/2 (converted)
Rattus norvegicus [9] = test: Inhibition of stearoyl-CoA delta9 desaturase in high-carbohydrate diet-fed Sprague-Dawley rat dosed orally BID for 5 days assessed as reduction in plasma palmitoleic and vaccenic acid level; format: functional, organism-based
Rattus norvegicus [10] = test: Reduction in liver triglyceride level in high-carbohydrate diet-fed Sprague-Dawley rat at 20 mg/kg, po, BID after 5 days measured after 4 hrs of last dose relative to control; format: functional; set-up: scale not given: the % may be the effect or the level left
Rattus norvegicus [11] = test: Inhibition of stearoyl-CoA delta9 desaturase in high-carbohydrate diet-fed Sprague-Dawley rat dosed orally BID for 5 days assessed as reduction in liver palmitoleic and vaccenic acid level; format: functional, organism-based
[12] = biological target: Acyl-CoA (8-3)-desaturase (Rattus norvegicus, UniProt Q920R3); test: Inhibition of stearoyl-CoA delta5 desaturase in rat microsome
Chain of Acyl-CoA (8-3)-desaturase (Q920R3 whole entry): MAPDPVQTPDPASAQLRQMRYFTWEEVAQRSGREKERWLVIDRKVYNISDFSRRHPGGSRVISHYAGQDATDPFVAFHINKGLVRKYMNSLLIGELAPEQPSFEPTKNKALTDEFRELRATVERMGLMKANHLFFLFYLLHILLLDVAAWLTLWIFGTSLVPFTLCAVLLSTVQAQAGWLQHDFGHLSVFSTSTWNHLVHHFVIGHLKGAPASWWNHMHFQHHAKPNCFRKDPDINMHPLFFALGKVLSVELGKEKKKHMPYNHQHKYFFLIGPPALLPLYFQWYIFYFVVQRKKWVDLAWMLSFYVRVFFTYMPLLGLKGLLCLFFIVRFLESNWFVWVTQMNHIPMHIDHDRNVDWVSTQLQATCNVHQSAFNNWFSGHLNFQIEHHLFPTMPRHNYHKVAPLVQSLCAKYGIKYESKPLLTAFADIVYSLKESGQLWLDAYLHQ

[13] = Apparent permeability from apical to basolateral side of human Caco-2 cells; format: ADME, cell-based
[14] = Apparent permeability from basolateral to apical side of human Caco-2 cells; format: ADME, cell-based
Acyl-CoA 6-desaturase = Acyl-CoA 6-desaturase (Rattus norvegicus, UniProt Q9Z122); test: Inhibition of stearoyl-CoA delta6 desaturase in rat microsome
Chain of Acyl-CoA 6-desaturase (Q9Z122 whole entry): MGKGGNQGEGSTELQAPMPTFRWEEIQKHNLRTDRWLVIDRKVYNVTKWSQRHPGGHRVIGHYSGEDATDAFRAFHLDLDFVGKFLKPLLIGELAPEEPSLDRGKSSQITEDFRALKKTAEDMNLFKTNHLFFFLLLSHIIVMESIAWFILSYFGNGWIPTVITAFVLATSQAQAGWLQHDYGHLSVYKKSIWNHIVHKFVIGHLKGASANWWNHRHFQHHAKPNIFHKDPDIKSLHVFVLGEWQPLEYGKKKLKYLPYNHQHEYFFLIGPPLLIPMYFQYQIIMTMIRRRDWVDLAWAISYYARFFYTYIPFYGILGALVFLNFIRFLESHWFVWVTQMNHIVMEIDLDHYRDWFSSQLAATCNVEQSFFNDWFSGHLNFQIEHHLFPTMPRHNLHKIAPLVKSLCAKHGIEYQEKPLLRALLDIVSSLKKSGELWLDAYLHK

IC50 (Acyl-CoA desaturase 1) [µM] | remaining at 0.5 h [1] [%] | remaining at 0.5 h [2] [%] | IC50 (Stearoyl-CoA desaturase) [µM] | Structure (SMILES) | other results
0.11 | 83 | 54 |  | COc1ccc(-c2nc3ccc(NCc4ccc(Cl)c(Cl)c4)cc3n(CCNC(C)=O)c2=O)cc1 | AUC (Rattus norvegicus [3]): 0 µg·h/mL
1.1 |  |  |  | Cc1nc2ccc(NCc3cccc(C(F)(F)F)c3)cc2n(CCNC(=O)CCO)c1=O | 
0.08 | 2.3 | 1.5 |  | CC1Oc2ccc(NCc3ccc(Cl)c(Cl)c3)cc2N(CCNC(=O)CO)C1=O (racemic) | 
0.093 |  |  | 0.033 | COc1ccc(-c2nc3ccc(NCc4cccc(C(F)(F)F)c4)cc3n(CCNC(C)=O)c2=O)cc1 | 
0.0019 | 19 | 77 | 0.0027 | O=C(CO)NCCn1c(=O)c(C(F)(F)F)nc2ccc(NCc3cccc(C(F)(F)F)c3)cc21 | 
0.038 | 56 | 54 |  | Cc1nc2ccc(NCc3cccc(C(F)(F)F)c3)cc2n(CCNC(=O)CO)c1=O | Activity (Rattus norvegicus [9]): Dose-dependent effect; bioavailability [6]: 78%; Activity (Rattus norvegicus [10]): 50%; AUC (Rattus norvegicus [3]): 0.148 µg·h/mL; Activity (Rattus norvegicus [11]): Dose-dependent effect; Vd [4]: 7.22 L/kg; Cmax [5]: 0.374 µg/mL; IC50 [12]: > 30 µM; Papp A→B [13]: 68 nm/s; Papp B→A [14]: 482 nm/s; clearance [7]: 5.29 L/h/kg; half-life [8]: 0.95 h; IC50 (Acyl-CoA 6-desaturase): > 30 µM

The remaining lines, values behind:

Structure (SMILES) | IC50 (Acyl-CoA desaturase 1) [µM] | remaining at 0.5 h [1] [%] | remaining at 0.5 h [2] [%] | IC50 (Stearoyl-CoA desaturase) [µM] | other results
CC(=O)NCCn1c(=O)c(C)nc2ccc(NCc3cccc(C(F)(F)F)c3)cc21 | 0.162 |  |  |  | 
O=C(CO)Nc1ccc2ncn(Cc3ccc(Cl)c(C(F)(F)F)c3)c(=O)c2c1 |  |  |  |  | AUC (Rattus norvegicus [3]): 0.451 µg·h/mL; Vd [4]: 1.46 L/kg; Cmax [5]: 0.439 µg/mL
Cc1nc2ccc(NCc3cccc(C(F)(F)F)c3)cc2n(CCNC(N)=O)c1=O | 0.015 |  |  | > 1 | 
O=C(CO)NCCN1C(=O)COc2ccc(NCc3ccc(Cl)c(Cl)c3)cc21 |  | 32 | 14 | 0.0005 | bioavailability [6]: 39%; AUC (Rattus norvegicus [3]): 0.122 µg·h/mL; Vd [4]: 4.89 L/kg; Cmax [5]: 0.427 µg/mL; clearance [7]: 3.18 L/h/kg; half-life [8]: 1.07 h
CC1(C)Oc2ccc(NCc3ccc(Cl)c(Cl)c3)cc2N(CCNC(=O)CO)C1=O | 0.012 | 3.1 | 9.6 |  | 
Cc1nc2ccc(NCc3cccc(C(F)(F)F)c3)cc2n(CCNC(=O)[C@H](C)O)c1=O | 8 |  |  |  | 
Cc1nc2ccc(NCc3cccc(C(F)(F)F)c3)cc2n(CCNC(=O)C(O)CO)c1=O (racemic) | 0.268 |  |  | 0.068 | 
CC(C)c1nc2ccc(NCc3cccc(C(F)(F)F)c3)cc2n(CCNC(=O)CO)c1=O | 2.8 |  |  |  | 
CC(C)(C)c1nc2ccc(NCc3cccc(C(F)(F)F)c3)cc2n(CCNC(=O)CO)c1=O | > 3 |  |  |  | 
COc1ccc(-c2nc3ccc(NCc4ccc(Cl)c(C(F)(F)F)c4)cc3n(CCNC(C)=O)c2=O)cc1 | 0.0006 |  |  |  | 
Cc1nc2ccc(NCc3cccc(C(F)(F)F)c3)cc2n(CCNC(=O)[C@@H](C)O)c1=O | 3.9 |  |  |  | 
O=C(CO)Nc1ccc2ncn(Cc3ccc(Cl)c(Cl)c3)c(=O)c2c1 |  |  |  | 0.119 | AUC (Rattus norvegicus [3]): 0.935 µg·h/mL; Vd [4]: 2.06 L/kg; Cmax [5]: 0.36 µg/mL
